Results from EP0253650A2, “Improvements relating to benzothiophene derivatives” (ELI LILLY AND COMPANY, priority 1986, dated 1988).

System: guinea pigs
Test: Antigen induced anaphylaxis in guinea pigs (ovalbumin aerosol challenge of sensitized animals)
Type: in vivo
Conditions: percent inhibition of anaphylaxis (severity index vs placebo), two hours prior to aerosol challenge
Protocol: Following the general procedure taught by Andersson, Brit. J. Pharmacol., 69, 467 (1980), mixed sex Hartley strain guinea pigs (250-300 g) were sensitized to ovalbumin by a single injection of 1 mcg of ovalbumin mixed with 50 mg of aluminum hydroxide per animal. These animals were used 21 to 26 days later for aerosol challenge with ovalbumin.
Anaphylaxis was induced by exposure to an aerosol of 10 mg of ovalbumin per milliliter of water for 10 minutes delivered by a Tri-R venturi nebulizer, particle size 2 to 5 micron diameter, at a delivery rate of 0.4 ml of solution per minute. The guinea pigs were placed in specially constructed chamber for exposure to the aerosol. The aerosol was introduced from the bottom of the chamber and exhausted at the top. A baffle above the chamber inlet port provided even distribution of the aerosol throughout the chamber. The animals were supported above the inlet on a wire mesh disc. The chamber was under slight negative pressure to enhance the exhaust of the aerosol which was passed through a calcium chloride trap followed by a super-cooled condenser trap.
Groups of five guinea pigs were treated with the compounds of this invention, clinical anti-asthmatic agents, or placebo (vehicle only) two hours prior to the aerosol challenge. All the animals also received 3 mg/kg pyrillamine orally two hours prior to the aerosol challenge in order to blunt the histamine component of the anaphylaxis. The compounds were administered orally as a suspension in 10% acacia or intraperitoneally in 10% acacia.
The number of animals that responded to the aerosol challenge for each of the above parameters as well as the time for the response to occur were recorded. The data were analyzed by comparing the severity index (the sum of the number of animals that coughed, collapsed, and/or died) between the treated and placebo group of guinea pigs. Thus, the maximum severity index for each group of five guinea pigs is 15. On the average, the severity index for the placebo group was 10-12. The percent inhibition of anaphylaxis was determined by the following formula: [formula] where Sd is the severity index for the drug treated animals and Sp is the severity index of the placebo treated animals.

CCOc1cc2cc(C(=O)N(CC)CC)sc2cc1OCC [Example 3, N,N-Diethyl-5,6-diethoxybenzo[b]thiophene-2-carboxamide]
Percent Inhibition (dose 10 mg/kg, I.P.): 44% | Percent Inhibition (dose 30 mg/kg, I.P.): 89% | Percent Inhibition (dose 50 mg/kg, I.P.): 82% | Percent Inhibition (dose 50 mg/kg, P.O.): 38%

CCOc1cc2cc(C(=O)Nc3nnn[nH]3)sc2cc1OCC [Example 4, 5,6-Diethoxy-N-1H-tetrazol-5-ylbenzo[b]thiophene-2-carboxamide]
Percent Inhibition (dose 50 mg/kg, P.O.): 56%

CCOc1cc2cc(C#N)sc2cc1OCC [Example 5, 5,6-Diethoxybenzo[b]thiophene-2-carbonitrile]
Percent Inhibition (dose 30 mg/kg, I.P.): 69% | Percent Inhibition (dose 50 mg/kg, I.P.): 74-84% | Percent Inhibition (dose 50 mg/kg, P.O.): 22%

CCOc1cc2cc(-c3nnn[nH]3)sc2cc1OCC [Example 6, 5-(5,6-Diethoxybenzo[b]thien-2-yl)-1H-tetrazole]
Percent Inhibition (dose 50 mg/kg, P.O.): 43%

CCOc1cc2cc(CO)sc2cc1OCC [Example 7, 5,6-Diethoxybenzo[b]thiophene-2-methanol]
Percent Inhibition (dose 30 mg/kg, I.P.): 89% | Percent Inhibition (dose 50 mg/kg, I.P.): 74% | Percent Inhibition (dose 50 mg/kg, P.O.): 68%
